ChEMBL document CHEMBL6071170, “Development of novel focal adhesion kinase (FAK) inhibitors for targeting cancer: Structural insights and therapeutic potential” (Eur J Med Chem, 2024)
Each block holds one compound with its values, some of them ahead of it.

Columns and labels:
[1] = target: T1, Focal adhesion kinase 1 (Homo sapiens, UniProt Q05397); assay: Inhibition of human FAK by FRET assay
[2] = target: T1, Focal adhesion kinase 1; assay: Inhibition of FAK (unknown origin)
[3] = target: Serine/threonine-protein kinase PLK1 (Homo sapiens, UniProt P53350); assay: Inhibition of PLK1 (unknown origin)
Serine/threonine-protein kinase PLK1, sequence (P53350 whole entry): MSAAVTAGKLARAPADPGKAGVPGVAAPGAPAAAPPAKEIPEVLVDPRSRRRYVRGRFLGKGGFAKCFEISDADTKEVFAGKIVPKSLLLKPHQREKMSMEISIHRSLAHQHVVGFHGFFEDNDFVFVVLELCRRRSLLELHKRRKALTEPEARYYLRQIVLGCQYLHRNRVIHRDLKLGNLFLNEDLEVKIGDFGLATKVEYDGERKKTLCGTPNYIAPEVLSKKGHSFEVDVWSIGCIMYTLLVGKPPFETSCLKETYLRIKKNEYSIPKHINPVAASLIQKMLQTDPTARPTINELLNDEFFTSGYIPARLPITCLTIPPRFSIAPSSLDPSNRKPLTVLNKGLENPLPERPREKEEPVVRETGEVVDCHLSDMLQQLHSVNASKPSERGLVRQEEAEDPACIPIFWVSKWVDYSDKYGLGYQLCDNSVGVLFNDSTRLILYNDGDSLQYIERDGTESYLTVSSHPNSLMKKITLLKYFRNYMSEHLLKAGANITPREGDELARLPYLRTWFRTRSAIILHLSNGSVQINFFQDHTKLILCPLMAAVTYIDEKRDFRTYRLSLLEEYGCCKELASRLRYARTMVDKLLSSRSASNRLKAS

[4] = Plasma stability in human assessed as half life by LC-MS/MS analysis; type: ADME, cell-free
[5] = test system: BXPC-3; assay: Antiproliferative activity against human BXPC-3 cells; type: functional, cell-based
[6] = target: Protein cereblon/Focal adhesion kinase 1 (Homo sapiens, UniProt Q05397+Q96SW2); assay: PROTAC activity at CRBN/FAK in human PC3 cells assessed as protein degradation incubated for 12 hrs by Western blot analysis relative to control; type: cell-based; conditions: pc-3
Protein cereblon/Focal adhesion kinase 1, sequence (Q05397 whole entry): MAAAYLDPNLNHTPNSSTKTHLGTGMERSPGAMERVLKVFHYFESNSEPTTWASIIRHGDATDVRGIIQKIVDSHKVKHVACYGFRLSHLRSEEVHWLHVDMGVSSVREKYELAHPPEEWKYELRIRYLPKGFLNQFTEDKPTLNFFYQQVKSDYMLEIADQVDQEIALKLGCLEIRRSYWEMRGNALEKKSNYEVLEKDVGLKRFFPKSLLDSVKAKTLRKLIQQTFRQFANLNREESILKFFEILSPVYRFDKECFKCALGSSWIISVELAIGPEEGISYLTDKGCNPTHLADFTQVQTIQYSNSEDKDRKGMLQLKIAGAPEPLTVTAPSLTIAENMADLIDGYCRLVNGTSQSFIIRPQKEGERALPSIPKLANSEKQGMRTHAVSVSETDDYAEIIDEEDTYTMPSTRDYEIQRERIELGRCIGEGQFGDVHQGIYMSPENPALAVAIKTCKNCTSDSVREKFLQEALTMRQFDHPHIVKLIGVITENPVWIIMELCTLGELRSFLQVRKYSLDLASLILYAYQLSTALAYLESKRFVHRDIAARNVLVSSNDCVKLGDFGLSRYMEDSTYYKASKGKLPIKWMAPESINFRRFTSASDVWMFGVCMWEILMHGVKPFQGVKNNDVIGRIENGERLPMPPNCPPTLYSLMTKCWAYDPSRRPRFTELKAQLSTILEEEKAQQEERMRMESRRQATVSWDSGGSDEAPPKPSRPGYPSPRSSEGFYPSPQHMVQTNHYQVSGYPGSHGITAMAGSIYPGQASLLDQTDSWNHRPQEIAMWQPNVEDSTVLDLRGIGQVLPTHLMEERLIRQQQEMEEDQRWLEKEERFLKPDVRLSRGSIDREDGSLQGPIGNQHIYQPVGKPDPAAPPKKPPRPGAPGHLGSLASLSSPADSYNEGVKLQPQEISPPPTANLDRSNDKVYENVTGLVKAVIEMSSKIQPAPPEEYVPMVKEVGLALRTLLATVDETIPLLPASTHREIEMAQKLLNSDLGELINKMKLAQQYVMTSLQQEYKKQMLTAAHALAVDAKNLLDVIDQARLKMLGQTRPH
Protein cereblon/Focal adhesion kinase 1, sequence (Q96SW2 whole entry): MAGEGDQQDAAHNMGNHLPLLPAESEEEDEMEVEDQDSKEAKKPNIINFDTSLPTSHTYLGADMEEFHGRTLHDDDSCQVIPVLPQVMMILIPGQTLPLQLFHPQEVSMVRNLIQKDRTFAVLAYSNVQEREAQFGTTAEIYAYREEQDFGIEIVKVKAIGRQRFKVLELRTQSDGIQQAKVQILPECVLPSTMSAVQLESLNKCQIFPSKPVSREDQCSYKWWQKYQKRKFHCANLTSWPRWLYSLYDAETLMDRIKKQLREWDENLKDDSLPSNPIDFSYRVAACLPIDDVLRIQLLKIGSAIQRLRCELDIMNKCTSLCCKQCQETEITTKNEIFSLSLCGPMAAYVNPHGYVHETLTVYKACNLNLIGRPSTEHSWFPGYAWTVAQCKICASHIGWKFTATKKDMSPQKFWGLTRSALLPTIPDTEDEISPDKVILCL

[7] = target: ALK tyrosine kinase receptor (Homo sapiens, UniProt Q9UM73); assay: Inhibition of ALK (unknown origin)
ALK tyrosine kinase receptor, sequence (Q9UM73 whole entry): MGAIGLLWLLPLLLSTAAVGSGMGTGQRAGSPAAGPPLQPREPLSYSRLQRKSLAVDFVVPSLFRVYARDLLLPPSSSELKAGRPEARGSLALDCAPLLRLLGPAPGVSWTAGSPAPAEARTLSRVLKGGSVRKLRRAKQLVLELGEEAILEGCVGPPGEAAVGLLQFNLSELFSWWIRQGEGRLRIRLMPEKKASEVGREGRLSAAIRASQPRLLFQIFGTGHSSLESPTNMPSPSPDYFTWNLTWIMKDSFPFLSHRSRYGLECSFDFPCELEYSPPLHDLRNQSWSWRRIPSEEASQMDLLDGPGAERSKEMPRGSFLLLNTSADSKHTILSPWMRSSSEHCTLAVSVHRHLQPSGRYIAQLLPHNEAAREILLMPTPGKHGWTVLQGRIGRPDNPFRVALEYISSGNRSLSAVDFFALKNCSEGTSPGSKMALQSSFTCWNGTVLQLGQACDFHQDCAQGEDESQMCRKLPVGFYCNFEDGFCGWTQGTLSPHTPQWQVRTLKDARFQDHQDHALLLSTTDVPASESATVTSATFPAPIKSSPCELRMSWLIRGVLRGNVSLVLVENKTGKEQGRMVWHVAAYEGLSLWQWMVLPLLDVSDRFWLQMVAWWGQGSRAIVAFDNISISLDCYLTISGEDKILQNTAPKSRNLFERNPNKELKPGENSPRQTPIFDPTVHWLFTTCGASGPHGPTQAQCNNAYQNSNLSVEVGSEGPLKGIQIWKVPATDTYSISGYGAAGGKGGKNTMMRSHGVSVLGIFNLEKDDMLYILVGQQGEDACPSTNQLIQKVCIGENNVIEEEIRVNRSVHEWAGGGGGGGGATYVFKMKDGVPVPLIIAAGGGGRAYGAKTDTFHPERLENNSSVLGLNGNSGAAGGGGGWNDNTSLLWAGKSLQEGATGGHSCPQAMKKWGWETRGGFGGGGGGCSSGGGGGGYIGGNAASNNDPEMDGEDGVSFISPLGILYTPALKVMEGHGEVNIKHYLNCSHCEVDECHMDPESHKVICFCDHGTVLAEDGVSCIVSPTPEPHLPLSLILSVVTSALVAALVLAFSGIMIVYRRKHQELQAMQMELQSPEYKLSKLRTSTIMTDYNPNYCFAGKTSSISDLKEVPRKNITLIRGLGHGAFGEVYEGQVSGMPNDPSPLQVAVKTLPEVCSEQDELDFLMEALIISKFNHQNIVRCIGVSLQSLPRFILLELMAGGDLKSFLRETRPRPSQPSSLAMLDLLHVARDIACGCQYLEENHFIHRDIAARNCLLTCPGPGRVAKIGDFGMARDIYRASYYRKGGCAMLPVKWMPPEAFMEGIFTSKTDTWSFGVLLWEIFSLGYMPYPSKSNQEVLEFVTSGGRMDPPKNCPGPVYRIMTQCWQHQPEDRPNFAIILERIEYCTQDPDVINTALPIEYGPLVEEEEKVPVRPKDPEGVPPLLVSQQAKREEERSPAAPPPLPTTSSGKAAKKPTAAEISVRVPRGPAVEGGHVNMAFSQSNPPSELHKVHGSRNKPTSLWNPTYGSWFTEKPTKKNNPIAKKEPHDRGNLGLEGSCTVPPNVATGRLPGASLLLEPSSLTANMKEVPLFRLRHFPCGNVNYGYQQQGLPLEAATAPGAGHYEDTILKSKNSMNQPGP

[8] = target: Proto-oncogene tyrosine-protein kinase ROS (Homo sapiens, UniProt P08922); assay: Inhibition of ROS1 (unknown origin)
[9] = Oral bioavailability in mouse; type: ADME, organism-based; conditions: in vivo
[10] = target: Epidermal growth factor receptor (Homo sapiens, UniProt P00533, T790M); assay: Inhibition of EGFR T790M mutant (unknown origin)
[11] = target: T1, Focal adhesion kinase 1; assay: Inhibition of FAK (unknown origin) by ADP-Glo kinase assay
[12] = target: T2, Protein deacetylase HDAC6 (Homo sapiens, UniProt Q9UBN7); assay: Inhibition of HDAC6 (unknown origin)
T2 sequence (Q9UBN7 whole entry): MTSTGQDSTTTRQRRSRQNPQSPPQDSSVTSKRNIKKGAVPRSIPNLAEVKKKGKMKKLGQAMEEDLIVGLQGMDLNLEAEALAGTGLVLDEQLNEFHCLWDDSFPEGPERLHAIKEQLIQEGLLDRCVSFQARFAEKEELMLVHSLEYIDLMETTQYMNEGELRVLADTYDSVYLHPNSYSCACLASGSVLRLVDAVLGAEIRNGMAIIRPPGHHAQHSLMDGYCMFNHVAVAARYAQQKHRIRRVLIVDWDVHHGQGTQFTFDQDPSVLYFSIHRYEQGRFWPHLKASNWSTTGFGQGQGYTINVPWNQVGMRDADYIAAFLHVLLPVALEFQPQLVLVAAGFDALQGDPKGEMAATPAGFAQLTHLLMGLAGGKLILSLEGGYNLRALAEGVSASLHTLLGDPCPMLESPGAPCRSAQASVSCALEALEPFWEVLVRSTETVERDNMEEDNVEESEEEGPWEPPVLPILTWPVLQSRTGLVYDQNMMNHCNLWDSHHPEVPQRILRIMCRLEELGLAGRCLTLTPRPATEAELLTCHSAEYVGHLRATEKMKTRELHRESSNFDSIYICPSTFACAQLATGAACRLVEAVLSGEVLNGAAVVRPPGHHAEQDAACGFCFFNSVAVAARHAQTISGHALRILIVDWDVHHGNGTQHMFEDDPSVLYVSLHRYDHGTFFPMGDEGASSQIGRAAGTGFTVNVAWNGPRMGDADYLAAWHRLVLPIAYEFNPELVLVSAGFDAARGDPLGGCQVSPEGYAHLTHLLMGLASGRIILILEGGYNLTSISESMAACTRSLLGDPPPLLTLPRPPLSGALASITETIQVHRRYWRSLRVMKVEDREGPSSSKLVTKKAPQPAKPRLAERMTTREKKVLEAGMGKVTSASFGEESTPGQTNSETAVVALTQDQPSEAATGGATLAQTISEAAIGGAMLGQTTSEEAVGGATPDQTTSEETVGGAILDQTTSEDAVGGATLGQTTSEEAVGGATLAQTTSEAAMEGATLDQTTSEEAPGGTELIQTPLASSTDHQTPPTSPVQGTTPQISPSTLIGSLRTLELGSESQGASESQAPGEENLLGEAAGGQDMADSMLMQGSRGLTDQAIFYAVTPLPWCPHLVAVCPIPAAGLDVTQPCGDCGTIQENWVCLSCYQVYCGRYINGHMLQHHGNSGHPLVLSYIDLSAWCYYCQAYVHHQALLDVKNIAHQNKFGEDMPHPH

[13] = target: T1, Focal adhesion kinase 1; assay: Inhibition of FAK (unknown origin) by FRET analysis
[14] = target: T1, Focal adhesion kinase 1; assay: Inhibition of N-terminal his-tagged human (1 to 422 residues) FAK
[15] = target: Fibroblast growth factor receptor (Homo sapiens, UniProt P22607+P11362+P22455+P21802); assay: Inhibition of human recombinant FGFR by FRET assay; type: protein assay
[16] = target: T1, Focal adhesion kinase 1; assay: Inhibition of FAK (unknown origin) by HTRF assay
[17] = target: T1, Focal adhesion kinase 1; assay: Binding affinity to FAK (unknown origin) assessed as inhibition constant
[18] = target: T3, Protein-tyrosine kinase 2-beta (Homo sapiens, UniProt Q14289); assay: Inhibition of PYK2 (unknown origin) by KinomeScan assay
T3 sequence (Q14289 whole entry): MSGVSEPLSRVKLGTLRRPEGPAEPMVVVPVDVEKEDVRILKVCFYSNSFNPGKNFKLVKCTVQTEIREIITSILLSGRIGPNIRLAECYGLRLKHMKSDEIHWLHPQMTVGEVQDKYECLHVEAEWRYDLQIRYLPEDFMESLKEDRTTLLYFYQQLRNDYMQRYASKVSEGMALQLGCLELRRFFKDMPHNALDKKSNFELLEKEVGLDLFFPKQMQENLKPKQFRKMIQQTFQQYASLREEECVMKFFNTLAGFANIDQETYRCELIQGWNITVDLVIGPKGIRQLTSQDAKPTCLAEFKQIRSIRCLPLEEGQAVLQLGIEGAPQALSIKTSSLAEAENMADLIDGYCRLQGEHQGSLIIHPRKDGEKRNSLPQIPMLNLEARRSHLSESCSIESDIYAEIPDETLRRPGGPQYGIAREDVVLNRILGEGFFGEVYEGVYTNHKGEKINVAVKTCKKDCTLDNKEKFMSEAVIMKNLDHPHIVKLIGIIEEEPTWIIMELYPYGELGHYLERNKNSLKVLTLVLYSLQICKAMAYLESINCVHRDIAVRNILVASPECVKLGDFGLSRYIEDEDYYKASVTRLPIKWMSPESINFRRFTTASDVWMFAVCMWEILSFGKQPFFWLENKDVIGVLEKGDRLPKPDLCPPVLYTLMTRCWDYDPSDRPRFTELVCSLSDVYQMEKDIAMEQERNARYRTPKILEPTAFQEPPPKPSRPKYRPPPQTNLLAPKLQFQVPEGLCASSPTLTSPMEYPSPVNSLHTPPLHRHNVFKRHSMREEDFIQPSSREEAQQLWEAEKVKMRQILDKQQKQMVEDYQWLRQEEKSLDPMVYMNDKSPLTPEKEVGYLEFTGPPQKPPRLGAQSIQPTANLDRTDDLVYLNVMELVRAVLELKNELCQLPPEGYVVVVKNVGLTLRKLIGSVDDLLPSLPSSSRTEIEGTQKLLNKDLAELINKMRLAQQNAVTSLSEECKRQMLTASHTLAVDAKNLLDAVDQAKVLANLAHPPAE

[19] = target: T3, Protein-tyrosine kinase 2-beta; assay: Inhibition of PYK2 (unknown origin)

T1 sequence (Q05397 whole entry): as the sequence (Q05397 whole entry) above

IC50 [2]: 45 nM
SMILES: O=C1CCc2cccc(Oc3nc(Nc4ccc(N5CCN(C(=S)SCCCN6CCOCC6)CC5)cc4)ncc3C(F)(F)F)c21

half-life [4]: > 3.25 h
SMILES: CN(c1ncccc1CNc1nc(Nc2ccc(N3CCN(CCCCCCC(=O)NCCNc4cccc5c4C(=O)N(C4CCC(=O)NC4=O)C5=O)CC3)cc2)ncc1C(F)(F)F)S(C)(=O)=O (stereo not drawn)

IC50 [2]: 26 nM
SMILES: CNC(=O)c1ccccc1Nc1cc(Nc2cc(C)c(C3CCN(CCCCCCNC(=O)COc4cccc5c4C(=O)N(C4CCC(=O)NC4=O)C5=O)CC3)cc2OC(C)C)ncc1C(F)(F)F (stereo not drawn)

IC50 [5]: 1040 nM
SMILES: Cn1cc(-c2nn3cc(-c4ccco4)nc3s2)c2ccccc21

DC50 [6]: 3 nM
SMILES: Cc1ncsc1-c1ccc(CNC(=O)[C@@H]2C[C@@H](O)CN2C(=O)[C@@H](NC(=O)CCOCCOc2ccc(Nc3ncc(C(F)(F)F)c(NCc4cccc(N(C)S(C)(=O)=O)c4)n3)cc2)C(C)(C)C)cc1

IC50 [10]: 3.89 nM
IC50 [11]: 1.03 nM
SMILES: CNC(=O)c1ccccc1Nc1nc(Nc2ccc(NC(=O)CN3CCOCC3)c(C)c2)ncc1Cl

IC50 [12]: 16 nM
IC50 [13]: 132 nM
SMILES: CNC(=O)c1ccccc1Nc1cc(Nc2ccc(NC(=O)CCCCCCC(=O)NO)cc2)ncc1Cl

IC50 [16]: 9.9 nM
SMILES: Clc1cccc(Cn2ccc3cnc(Nc4ccc(N5CCNCC5)cc4)nc32)c1

IC50 [2]: 19.1 nM
SMILES: CNC(=O)c1ccccc1Nc1nc(Nc2ccc(N3CCN(C)CC3)cc2)nc2[nH]ccc12

Further lines, the compound ahead of its results:

SMILES: CNC(=O)c1ccccc1Nc1cc(Nc2ccc(N3CCN(CC(=O)N[C@H](C(=O)N4C[C@H](O)C[C@H]4C(=O)N[C@@H](C)c4ccc(-c5scnc5C)cc4)C(C)(C)C)CC3)cc2OC)ncc1C(F)(F)F
IC50 [1]: 1.58 nM

SMILES: O=C(CSC1Nc2ccccc2C(=O)N1c1ccccc1)N1CCN(c2ccccc2Cl)CC1 (stereo not drawn)
IC50 [2]: 86 nM
IC50 [3]: 79 nM

SMILES: Cc1cc(Nc2ncc(Cl)c(Nc3ccccc3S(=O)(=O)C(C)C)n2)c(OC(C)C)cc1C1=CCN(C2CCOCC2)CC1 [APG-2449]
IC50 [7]: 1.6 nM
IC50 [2]: 5.4 nM
IC50 [8]: 0.81 nM

SMILES: C=CC(=O)NCCNc1c(NCc2ccc(Nc3ncc(Cl)c(Nc4ccccc4C(=O)NC)n3)cc2)c(=O)c1=O
bioavailability [9]: 21%

SMILES: OCC[N+]12CN3CN(CN(C3)C1)C2
IC50 [14]: 50 nM

SMILES: CNC(=O)c1ccccc1Nc1ncnc(Nc2cc(OC)c(OC)c(OC)c2)n1
IC50 [15]: 370 nM

SMILES: CONC(=O)c1ccccc1Nc1cc(Nc2cc(C)nn2C(C)C)ncc1Cl [GSK-2256098]
Ki [17]: 0.4 nM

SMILES: CNC(=O)c1ccccc1Nc1cc(Nc2cc(C)c(C3CCNCC3)cc2OC(C)C)ncc1C(F)(F)F
IC50 [18]: 623 nM

SMILES: CNC(=O)c1ccc(Nc2ncc(C(F)(F)F)c(NCc3nccnc3N(C)S(C)(=O)=O)n2)cc1 [DEFACTINIB]
IC50 [19]: 0.6 nM
